The text below walks through data of PubChem BioAssay (NCI).

Structures are written as SMILES.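 Method: 48-hour compound exposure of cells in 96-well plates, five concentrations, linear interpolation of endpoints. The concentration for 50% growth inhibition is given as GI50. TGI: total growth inhibition.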 Bounds are passed on as bounds.

Holding throughout (assay): NCI-60 cell line screen, 48 h
The subject of experiment [1] is CAKI-1 renal.
In experiment [2] the test system is K-562 leukemia.
Experiment [3] concerns CCRF-CEM leukemia.
For experiment [4], the system named is HCC-2998 colon.
Experiment [5] concerns HCT-15 colon.
Experiment [6] deals with OVCAR-4 ovarian.
Experiment [7] deals with SNB-19 CNS.
The test system of experiment [8] is OVCAR-5 ovarian.
For experiment [9], the system named is M14 melanoma.
Experiment [10] has as its system NCI/ADR-RES ovarian.

As to `Oc1ccc(N=Nc2nccs2)c(O)c1`, the GI50 in experiment [1] was 0.417 µM; in experiment [2], 3.58 µM; in experiment [3], 2.48 µM; in experiment [4], 3.92 µM; in experiment [5], 2.85 µM; in experiment [6], 3.46 µM. Moreover, the GI50 in experiment [7] was 11.5 µM; in experiment [8], 7.84 µM; in experiment [9], 11 µM; in experiment [10] it was 2.58 µM. In addition, the TGI in experiment [1] was 2.37 µM; in experiment [2], 34.3 µM; in [3], 8.99 µM; in experiment [4], 15 µM; in [5] it was 14.9 µM; in [6], greater than 100 µM. For the same compound, the TGI is 53.1 µM in experiment [7], 29.4 µM in experiment [8], 48.4 µM in [9] and 9.1 µM in experiment [10].
Turning to `CC(C)(C)c1cc(C(=O)/C=C/c2ccc(C(=O)O)cc2)cc(C(C)(C)C)c1`, the TGI in [1] is 15.5 µM; in experiment [2] it was greater than 100 µM; in [3], 9.48 µM; in [4], 3.88 µM; in [5], 4.12 µM; in experiment [6] it was 19 µM. Also, the TGI came out at 5.74 µM in experiment [7], 17.2 µM in [8], 3.89 µM in [9] and 6.8 µM in experiment [10].
`CNCCn1c(=O)c2cc(OC)c(OC)cc2c2cnc3cc4c(cc3c21)OCO4`: the GI50 was less than 0.01 µM in experiment [1]; 0.0252 µM in [2]; less than 0.01 µM in experiment [3]; 0.0484 µM in [4]; 0.0359 µM in [5]; 0.0347 µM in experiment [6]. In addition, the GI50 is less than 0.01 µM in [7], 0.0259 µM in experiment [8], less than 0.01 µM in experiment [9] and 0.032 µM in experiment [10]. Also, the TGI in experiment [1] was found to be 0.128 µM; in experiment [2], 2.2 µM; in experiment [3], 1.19 µM; in experiment [4], 1.79 µM; in experiment [5] it was 1.55 µM; in experiment [6], 2.21 µM. The TGI in experiment [7] was determined as 2.28 µM; in experiment [8], 0.304 µM; in experiment [9], 1.36 µM; in experiment [10] it was 1.51 µM.
Consider `c1ccc2c(c1)c1ccccc1c1ccccc21`, for which the GI50 in experiment [1], in experiment [2], in experiment [3], in [4], in experiment [5] and in [6] was greater than 100 µM in each case. The GI50 in experiment [7], in experiment [8], in experiment [9] and in experiment [10] was greater than 100 µM each time. Besides, the TGI in [1], in experiment [2], in experiment [3], in experiment [4], in experiment [5] and in experiment [6] was greater than 100 µM in each case. In addition, the TGI in [7], in experiment [8], in [9] and in [10] was greater than 100 µM in each case.
For the compound `Nc1c(C(=O)Nc2ccccc2Cl)sc2nc3c(cc12)C(=O)CCC3`, the GI50 in experiment [1] was 1.84 µM; in experiment [2] it was 0.493 µM; in experiment [3], greater than 100 µM; in experiment [4], 21.2 µM; in experiment [5], 0.626 µM; in experiment [6] it was greater than 27.5 µM. For the same compound, the GI50 is 12.5 µM in experiment [7], greater than 100 µM in [8], 1.06 µM in experiment [9] and 5.34 µM in [10]. Besides, the TGI in [1], in experiment [2], in experiment [3], in experiment [4], in [5] and in experiment [6] was greater than 100 µM each time. Further, the TGI in [7], in [8], in experiment [9] and in experiment [10] was greater than 100 µM throughout.
For the compound `Clc1nc(Cl)c2ncn(Cc3ccccc3Cn3cnc4c(Cl)nc(Cl)nc43)c2n1`, the GI50 in [1] is 2.32 µM; in experiment [2], 2.6 µM; in experiment [3], 1.42 µM; in [4], 1.88 µM; in experiment [5], 1.47 µM; in experiment [6], 2 µM. For the same compound, the GI50 is 2.9 µM in [7], 5.09 µM in [8], 5.13 µM in [9] and 7.04 µM in [10]. Further, the TGI in experiment [1] was found to be 6.41 µM; in [2], 6.8 µM; in experiment [3], 3.14 µM; in [4] it was 3.56 µM; in [5], 3.32 µM; in experiment [6] it was 4.05 µM. In addition, the TGI in [7] was greater than 26.1 µM; in experiment [8] it was 10.4 µM; in experiment [9] it was 10 µM; in experiment [10], 17.2 µM.
For `O=C(NNc1cnccn1)c1nc2cc(F)ccc2n2cccc12`, the GI50 in [1] is 0.422 µM; in [2], 0.387 µM; in experiment [3], 0.211 µM; in [4], 2.88 µM; in [5] it was 0.183 µM; in [6], 0.211 µM. Besides, the GI50 in experiment [7] is 0.7 µM; in experiment [8], 0.828 µM; in [9], 0.34 µM; in [10], 0.461 µM. Moreover, the TGI in experiment [1] was greater than 100 µM; in experiment [2] it was greater than 100 µM; in experiment [3] it was greater than 100 µM; in experiment [4], greater than 100 µM; in experiment [5], greater than 100 µM; in experiment [6], 0.964 µM. The TGI in [7] is greater than 100 µM; in [8] it was greater than 100 µM; in experiment [9], 14.5 µM; in experiment [10], greater than 44.8 µM.
As for `O=C1c2ccccc2C(=O)c2c(NCCN=Cc3ccccc3O)cccc21`, the GI50 is 0.434 µM in [1]; 2.47 µM in experiment [2]; 1.43 µM in [3]; 7.82 µM in experiment [4]; 4.03 µM in [5]; 2.79 µM in experiment [6]. For the same compound, the GI50 in experiment [7] is 4.31 µM; in experiment [8] it was 14.2 µM; in [9], 7.44 µM; in experiment [10], 10.5 µM. Moreover, the TGI was 2.8 µM in experiment [1]; greater than 45.1 µM in experiment [2]; 3.88 µM in experiment [3]; 22.6 µM in experiment [4]; 16.7 µM in [5]; greater than 22.9 µM in experiment [6]. The TGI in experiment [7] is greater than 54.5 µM; in experiment [8], 99.3 µM; in [9], 32.7 µM; in experiment [10] it was greater than 100 µM.
In the case of `COc1cc2c3c(n(CCCN(C)CCO)c(=O)c2cc1OC)-c1cc2c(cc1C3=O)OCO2`, the GI50 in experiment [1] was 0.936 µM; in experiment [2], 0.439 µM; in [4] it was 7.05 µM; in experiment [5], 6.79 µM; in [6], 30.9 µM; in experiment [7] it was 8.32 µM. For the same compound, the GI50 was 51.7 µM in experiment [8], 1.48 µM in experiment [9] and 3.21 µM in [10]. Further, the TGI in [1] was greater than 100 µM; in experiment [2], 54.7 µM; in experiment [3], 0.473 µM; in [4] it was greater than 52.1 µM; in experiment [5] it was greater than 100 µM; in experiment [6], greater than 72.4 µM. In addition, the TGI is greater than 100 µM in experiment [7], greater than 100 µM in experiment [8], greater than 68.9 µM in experiment [9] and 31.5 µM in [10].
`NCCCn1c2c(c3ccccc3c1=O)C(=O)c1ccccc1-2`: the GI50 is 0.0435 µM in experiment [1]; 0.0857 µM in experiment [2]; less than 0.0462 µM in experiment [3]; 0.0684 µM in experiment [4]; 0.0762 µM in experiment [5]; 0.785 µM in experiment [6]. Besides, the GI50 is 0.0857 µM in experiment [7], 0.306 µM in experiment [8], 0.628 µM in experiment [9] and 0.145 µM in [10]. Moreover, the TGI amounted to 0.364 µM in [1]; 10.4 µM in [2]; 0.375 µM in experiment [3]; 1.01 µM in experiment [4]; 1.38 µM in [5]; 9.82 µM in experiment [6]. The TGI in [7] came to 3.43 µM; in experiment [8] it was 2.94 µM; in experiment [9], 3.47 µM; in experiment [10], 2.68 µM.
As for `COc1ccc2c(c1)C(C)Cc1c(ncnc1-n1cnc3ccccc31)N2C` (centres undefined), the GI50 in experiment [1] was 0.373 µM; in [2], 0.384 µM; in [3] it was 0.481 µM; in [4], 0.922 µM; in experiment [5], 0.367 µM; in experiment [6], 1.25 µM. The GI50 in experiment [7] was 0.695 µM; in experiment [8] it was 6.21 µM; in experiment [9], 0.313 µM; in [10], 0.395 µM. Moreover, the TGI is 17.2 µM in [1]; greater than 100 µM in experiment [2]; 20.5 µM in experiment [3]; 10.4 µM in experiment [4]; 10.9 µM in [5]; 30.6 µM in experiment [6]. For the same compound, the TGI in experiment [7] is 27.5 µM; in experiment [8], 43.9 µM; in [9], 12.7 µM; in [10], greater than 100 µM.
